The values below come from PubChem BioAssay AID330 (DTP/NCI, 2004).

For the test, the system named is P388 leukemia ip, CD2F1 mice, survival T/C. Briefly: NCI In Vivo Anticancer Drug Screen. Data for tumor model P388 Leukemia (intraperitoneal) in CD2F1 (CDF1) mice. As to conditions: endpoint: median survival time, higher = longer survival. Summed up:
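Mice carrying the transplanted tumor received test compound or vehicle. Survival was recorded in each group, and the value is the treated-group measurement divided by that of the vehicle-treated control group.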

Setting [1] is: dose: 50.0 mg/kg/injection, schedule: Q01DX005 (ip), vehicle: Klucel (hydroxypropylcellulose) (HPC).
[2] abbreviates: dose: 100.0 mg/kg/injection, schedule: Q01DX005 (ip), vehicle: Klucel (hydroxypropylcellulose) (HPC).
The mark [3] stands for this setting: dose: 200.0 mg/kg/injection, schedule: Q01DX005 (ip), vehicle: Klucel (hydroxypropylcellulose) (HPC).
Setting [4] is: dose: 100.0 mg/kg/injection, schedule: Q01DX009 (ip), vehicle: saline with Tween-80.
[5] abbreviates: dose: 100.0 mg/kg/injection, schedule: Q01DX009 (ip), vehicle: saline.
The mark [6] stands for this setting: dose: 100.0 mg/kg/injection, schedule: Q04DX003 (ip), vehicle: Klucel (hydroxypropylcellulose) (HPC).
The mark [7] stands for this setting: dose: 200.0 mg/kg/injection, schedule: Q04DX003 (ip), vehicle: Klucel (hydroxypropylcellulose) (HPC).
Where [8] appears, read: dose: 400.0 mg/kg/injection, schedule: Q04DX003 (ip), vehicle: Klucel (hydroxypropylcellulose) (HPC).
The mark [9] stands for this setting: dose: 50.0 mg/kg/injection, schedule: Q01DX009 (ip), vehicle: Klucel (hydroxypropylcellulose) (HPC).
[10] abbreviates: dose: 100.0 mg/kg/injection, schedule: Q04DX003 (ip), vehicle: saline.
Setting [11] is: dose: 200.0 mg/kg/injection, schedule: Q01DX009 (ip), vehicle: saline.
Setting [12] is: dose: 200.0 mg/kg/injection, schedule: Q04DX003 (ip), vehicle: saline.

“And” between values parts separate entries of the source, which are not always exact repeats. Equal values may be shown once. Inconclusive results and toxic doses are left out. Peptide text beside a SMILES is read from it. * marks the point of attachment. Boc = CC(C)(C)OC(=O)*

For the compound `CCOc1c(N=Nc2ccc(OC)cc2)c(C)nn1C(N)=S`, the T/C (dose: 15.0 mg/kg/injection, schedule: Q01DX005 (ip), vehicle: Klucel + Tween-80) was 101 % of control; the T/C (dose: 30.0 mg/kg/injection, schedule: Q01DX005 (ip), vehicle: Klucel + Tween-80) was 100 % of control; the T/C (dose: 60.0 mg/kg/injection, schedule: Q01DX005 (ip), vehicle: Klucel + Tween-80) was 98 % of control and 123 % of control; the T/C (dose: 120.0 mg/kg/injection, schedule: Q01DX005 (ip), vehicle: Klucel + Tween-80) is 110 % of control and 91 % of control; the T/C (dose: 240.0 mg/kg/injection, schedule: Q01DX005 (ip), vehicle: Klucel + Tween-80) was 100 % of control.
As for `O=C(Nc1ccc(O)c2c1C(=O)c1ccccc1C2=O)Oc1ccccc1`, the T/C runs as follows: under setting [1], 101 % of control; under setting [2], 102 % of control; under setting [3], 99 % of control.
Consider `O=C1CCC(Cc2ccc(I)cc2)C(=O)N1` (centres undefined), for which the T/C was 101 % of control (dose: 100.0 mg/kg/injection, schedule: Q01DX001 (ip), vehicle: saline with Tween-80); 100 % of control (dose: 200.0 mg/kg/injection, schedule: Q01DX001 (ip), vehicle: saline with Tween-80); 95 % of control (dose: 400.0 mg/kg/injection, schedule: Q01DX001 (ip), vehicle: saline with Tween-80).
With `Cc1nc2c(c(-c3ccccc3)n1)Cc1c(ccc3ccccc13)O2`, the T/C (dose: 50.0 mg/kg/injection, schedule: Q01DX009 (ip), vehicle: saline with Tween-80) was 96 % of control; the T/C under setting [4] is 102 % of control; the T/C (dose: 200.0 mg/kg/injection, schedule: Q01DX009 (ip), vehicle: saline with Tween-80) was 99 % of control; the T/C (dose: 400.0 mg/kg/injection, schedule: Q01DX009 (ip), vehicle: saline with Tween-80) was 92 % of control.
For `CCNc1nncs1`, the T/C runs as follows: (dose: 25.0 mg/kg/injection, schedule: Q01DX009 (ip), vehicle: saline) 113 % of control; under setting [5], 161 % of control; (dose: 125.0 mg/kg/injection, schedule: Q01DX009 (ip), vehicle: saline) 162 % of control.
On to `NC1=CC(=O)c2nc(-c3ccccc3N)ccc2C1=O`, for which the T/C was 109 % of control under setting [6] and 105 % of control under setting [7].
As to `CCOC(=O)C1=C(O)c2ccccc2S(=O)(=O)N1C` (tested in a mixture with another compound), the T/C runs as follows: (dose: 60.0 mg/kg/injection, schedule: Q01DX005 (ip), vehicle: saline with Tween-80) 98 % of control; (dose: 120.0 mg/kg/injection, schedule: Q01DX005 (ip), vehicle: saline with Tween-80) 107 % of control; (dose: 240.0 mg/kg/injection, schedule: Q01DX005 (ip), vehicle: saline with Tween-80) 97 % of control.
For `O=C1C=CC(=O)C(c2ccc(Cl)cc2)=C1`, the T/C reads like this: (dose: 12.5 mg/kg/injection, schedule: Q01DX009 (ip), vehicle: saline with Tween-80) 98 % of control; (dose: 25.0 mg/kg/injection, schedule: Q01DX009 (ip), vehicle: saline with Tween-80) 90 % of control; under setting [4], 90 % of control.
As to `O=c1[nH]cnc2cc(NCc3ccccc3)c([N+](=O)[O-])cc12`, the T/C is, setting by setting: under setting [6], 100 % of control; under setting [7], 96 % of control; under setting [8], 94 % of control.
Take `Cn1cc2c(cc1=O)-c1nc3ccccc3c3ccnc(c13)C2=O`: the T/C (dose: 1.25 mg/kg/injection, schedule: Q01DX005 (ip), vehicle: other) is 96 % of control; the T/C (dose: 2.5 mg/kg/injection, schedule: Q01DX005 (ip), vehicle: other) is 97 % of control; the T/C (dose: 5.0 mg/kg/injection, schedule: Q01DX005 (ip), vehicle: other) is 92 % of control; the T/C (dose: 10.0 mg/kg/injection, schedule: Q01DX005 (ip), vehicle: other) was 90 % of control.
For `CC(Cl)CN(CC(C)Cl)c1ccc2c(c1)Cc1ccccc1-2` (centres undefined), the T/C was 122 % of control under setting [9] and 112 % of control (dose: 100.0 mg/kg/injection, schedule: Q01DX009 (ip), vehicle: Klucel (hydroxypropylcellulose) (HPC)).
For `C=CCNSc1cccc([N+](=O)[O-])c1`, the T/C reads like this: (dose: 6.25 mg/kg/injection, schedule: Q01DX009 (ip), vehicle: Klucel (hydroxypropylcellulose) (HPC)) 121 % of control; (dose: 12.5 mg/kg/injection, schedule: Q01DX009 (ip), vehicle: Klucel (hydroxypropylcellulose) (HPC)) 120 % of control; (dose: 25.0 mg/kg/injection, schedule: Q01DX009 (ip), vehicle: Klucel (hydroxypropylcellulose) (HPC)) 121 % of control; under setting [9], 102 % of control and 103 % of control and 115 % of control.
As for `CSCCC(NC(=O)OC(C)(C)C)C(=O)NC(CCSC)C(=O)NC(C)C(=O)O` (stereo not drawn) (Boc-Met-Met-Ala-OH; configuration not given here), the T/C is 98 % of control under setting [1], 102 % of control under setting [2] and 102 % of control under setting [3].
On to `FC(F)(F)C1(C(F)(F)F)OS2(OC(C(F)(F)F)(C(F)(F)F)c3ccccc32)c2ccccc21`, for which the T/C is 91 % of control under setting [6], 91 % of control under setting [7] and 92 % of control under setting [8].
Turning to `CC(=O)OCC1OC(N(O)Cc2ccccc2)C(OC(C)=O)C(OC(C)=O)C1OC(C)=O` (centres undefined), the T/C was 100 % of control under setting [1], 95 % of control under setting [2] and 86 % of control under setting [3].
Take `CN1CCN(C)B1N=S(C)(C)=O`: the T/C (dose: 50.0 mg/kg/injection, schedule: Q01DX005 (ip), vehicle: olive oil, sesame oil, peanut oil) is 111 % of control and the T/C (dose: 100.0 mg/kg/injection, schedule: Q01DX005 (ip), vehicle: olive oil, sesame oil, peanut oil) was 114 % of control.
For the compound `CCOCCC(O)CC` (centres undefined), the T/C by setting is: under setting [5], 90 % of control; under setting [10], 122 % of control; under setting [11], 95 % of control; under setting [12], 104 % of control; (dose: 400.0 mg/kg/injection, schedule: Q01DX009 (ip), vehicle: saline) 104 % of control.
With `CNP(=O)(N(C)C)N(C)C`, the T/C reads like this: (dose: 50.0 mg/kg/injection, schedule: Q01DX009 (ip), vehicle: saline) 96 % of control; under setting [5], 98 % of control; under setting [11], 106 % of control.
`Cn1cc2c(c1-c1ccccc1)[n+](=O)c1ccccc1n2[O-]`: the T/C was 94 % of control (dose: 50.0 mg/kg/injection, schedule: Q01DX005 (ip), vehicle: saline with Tween-80); 91 % of control (dose: 100.0 mg/kg/injection, schedule: Q01DX005 (ip), vehicle: saline with Tween-80); 95 % of control (dose: 200.0 mg/kg/injection, schedule: Q01DX005 (ip), vehicle: saline with Tween-80).
As to `CCNC(=O)CCC(NS(=O)(=O)c1ccc(NC(C)=O)cc1)C(=O)O` (centres undefined), the T/C by setting is: (dose: 100.0 mg/kg/injection, schedule: Q04DX002 (ip), vehicle: Klucel (hydroxypropylcellulose) (HPC)) 91 % of control; (dose: 200.0 mg/kg/injection, schedule: Q04DX002 (ip), vehicle: Klucel (hydroxypropylcellulose) (HPC)) 107 % of control; (dose: 400.0 mg/kg/injection, schedule: Q04DX002 (ip), vehicle: Klucel (hydroxypropylcellulose) (HPC)) 92 % of control.
`Cc1cc(C)n(-c2ccc([N+](=O)[O-])cn2)n1`: the T/C is 99 % of control under setting [10]; 96 % of control under setting [12]; 99 % of control (dose: 400.0 mg/kg/injection, schedule: Q04DX003 (ip), vehicle: saline).
As to `O=C(Cl)CCc1cc(Cl)no1`, the T/C (dose: 3.13 mg/kg/injection, schedule: Q04DX003 (ip), vehicle: other) was 109 % of control; the T/C (dose: 6.25 mg/kg/injection, schedule: Q04DX003 (ip), vehicle: other) was 97 % of control; the T/C (dose: 12.5 mg/kg/injection, schedule: Q04DX003 (ip), vehicle: other) is 100 % of control; the T/C (dose: 25.0 mg/kg/injection, schedule: Q04DX003 (ip), vehicle: other) was 103 % of control; the T/C (dose: 50.0 mg/kg/injection, schedule: Q04DX003 (ip), vehicle: other) was 107 % of control; the T/C (dose: 100.0 mg/kg/injection, schedule: Q04DX003 (ip), vehicle: other) is 107 % of control. In addition, where the note is “dose: 200.0 mg/kg/injection, schedule: Q04DX003 (ip), vehicle: other”, the T/C is 100 % of control.
